Reference: patent US5202315A, “Cephalosporin compounds” (Lucky, Ltd., priority 1989, dated 1993)
In brackets after ≈: the same amount, converted by molar mass. Where two headings read alike, the source gives them in different places.

Key:
Type in all cases: cell-based
[1] = test system: Acinetobacter calcoaceticus ATCC 15473; test: Antibacterial activity, MIC; conditions: ATCC15473, ATCC 15473, agar two-fold dilution, 37° C., 20 hours, read-out: MIC
Outline: (§1)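 Agar two-fold dilution method: compound serially diluted two-fold in Mueller-Hinton agar, spotted with 2 μl of a 10^7 CFU/ml inoculum of each standard strain, then incubated at 37 °C for 20 h.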

[2] = test system: Bacillus cereus ATCC 11778; test: Antibacterial activity, MIC; conditions: ATCC11778, ATCC 11778, agar two-fold dilution, 37° C., 20 hours, read-out: MIC
Outline: as §1

[3] = test system: Bacillus megaterium ATCC 9885; test: Antibacterial activity, MIC; conditions: Priestia megaterium, ATCC9885; ATCC 9885; agar two-fold dilution, 37° C., 20 hours; read-out: MIC
Outline: as §1

[4] = test system: Citrobacter freundii ATCC 8090; test: Antibacterial activity, MIC; conditions: ATCC8090, ATCC 8090, agar two-fold dilution, 37° C., 20 hours, read-out: MIC
Outline: as §1

[5] = test system: Enterobacter aerogenes ATCC 29751; test: Antibacterial activity, MIC; conditions: Klebsiella aerogenes, ATCC29751; ATCC 29751; agar two-fold dilution, 37° C., 20 hours; read-out: MIC
Outline: as §1

[6] = test system: Enterobacter cloacae ATCC 27508; test: Antibacterial activity, MIC; conditions: ATCC27508, ATCC 27508, agar two-fold dilution, 37° C., 20 hours, read-out: MIC
Outline: as §1

[7] = test system: Escherichia coli ATCC 10536; test: Antibacterial activity, MIC; conditions: ATCC10536, agar two-fold dilution, 37° C., 20 hours
Outline: as §1

[8] = test system: Escherichia coli ATCC 25922; test: Antibacterial activity, MIC; conditions: ATCC25922, agar two-fold dilution, 37° C., 20 hours
Outline: as §1

[9] = test system: Klebsiella pneumoniae ATCC 10031; test: Antibacterial activity, MIC; conditions: ATCC10031, ATCC 10031, agar two-fold dilution, 37° C., 20 hours, read-out: MIC
Outline: as §1

[10] = test system: Micrococcus luteus ATCC 9341; test: Antibacterial activity, MIC; conditions: ATCC9341, ATCC 9341, agar two-fold dilution, 37° C., 20 hours, read-out: MIC
Outline: as §1

[11] = test system: Morganella morganii ATCC 8076h; test: Antibacterial activity, MIC; conditions: ATCC8076H, agar two-fold dilution, 37° C., 20 hours
Outline: as §1

[12] = test system: Proteus mirabilis ATCC 25933; test: Antibacterial activity, MIC; conditions: ATCC25933, ATCC 25933, agar two-fold dilution, 37° C., 20 hours, read-out: MIC
Outline: as §1

[13] = test system: Proteus vulgaris ATCC 6059; test: Antibacterial activity, MIC; conditions: ATCC6059, ATCC 6059, agar two-fold dilution, 37° C., 20 hours, read-out: MIC
Outline: as §1

[14] = test system: Providencia rettgeri ATCC 9250; test: Antibacterial activity, MIC; conditions: ATCC9250, agar two-fold dilution, 37° C., 20 hours
Outline: as §1

[15] = test system: Pseudomonas aeruginosa ATCC 10145; test: Antibacterial activity, MIC; conditions: ATCC10145, ATCC 10145, agar two-fold dilution, 37° C., 20 hours, read-out: MIC
Outline: as §1

[16] = test system: Pseudomonas aeruginosa ATCC 25619; test: Antibacterial activity, MIC; conditions: ATCC25619, ATCC 25619, agar two-fold dilution, 37° C., 20 hours, read-out: MIC
Outline: as §1

[17] = test system: Pseudomonas aeruginosa ATCC 27853; test: Antibacterial activity, MIC; conditions: ATCC27853, ATCC 27853, agar two-fold dilution, 37° C., 20 hours, read-out: MIC
Outline: as §1

[18] = test system: Salmonella typhimurium ATCC 14028; test: Antibacterial activity, MIC; conditions: Salmonella enterica; ATCC 14028; agar two-fold dilution, 37° C., 20 hours; read-out: MIC
Outline: as §1

[19] = test system: Serratia marcescens ATCC 27117; test: Antibacterial activity, MIC; conditions: ATCC27117, ATCC 27117, agar two-fold dilution, 37° C., 20 hours, read-out: MIC
Outline: as §1

[20] = test system: Shigella flexneri ATCC 11836; test: Antibacterial activity, MIC; conditions: ATCC11836, agar two-fold dilution, 37° C., 20 hours
Outline: as §1

[21] = test system: Shigella sonnei ATCC 11060; test: Antibacterial activity, MIC; conditions: ATCC11060, ATCC 11060, agar two-fold dilution, 37° C., 20 hours, read-out: MIC
Outline: as §1

[22] = test system: Staphylococcus aureus ATCC 10537; test: Antibacterial activity, MIC; conditions: ATCC10537, ATCC 10537, agar two-fold dilution, 37° C., 20 hours, read-out: MIC
Outline: as §1

[23] = test system: Staphylococcus aureus ATCC 6538p; test: Antibacterial activity, MIC; conditions: ATCC6538P, ATCC 6538p, agar two-fold dilution, 37° C., 20 hours, read-out: MIC
Outline: as §1

[24] = test system: Staphylococcus epidermidis ATCC 12228; test: Antibacterial activity, MIC; conditions: ATCC12228, ATCC 12228, agar two-fold dilution, 37° C., 20 hours, read-out: MIC
Outline: as §1

[25] = test system: Streptococcus faecalis ATCC 29212; test: Antibacterial activity, MIC; conditions: Enterococcus faecalis, ATCC29212; ATCC 29212; agar two-fold dilution, 37° C., 20 hours; read-out: MIC
Outline: as §1

[26] = test system: Escherichia coli; test: Antibacterial activity against clinically isolated strains, MIC; conditions: 38 clinical isolates, broth microdilution test
[27] = test system: Klebsiella pneumoniae; test: as above; conditions: 10 clinical isolates, broth microdilution test; for MIC90: read-out: MIC 90%
[28] = test system: Staphylococcus aureus methicillin susceptible; test: as above; conditions: methicillin susceptible, 42 clinical isolates, broth microdilution test; for MIC90: read-out: MIC 90%
[29] = test system: Staphylococcus aureus methicillin resistant; test: as above; conditions: methicillin resistant, 7 clinical isolates, broth microdilution test; for MIC90: read-out: MIC 90%
[30] = test system: Pseudomonas aeruginosa; test: as above
[31] = 54 clinical isolates, broth microdilution test

Compound | MIC [1] [µg/mL] | MIC [2] [µg/mL] | MIC [3] [µg/mL] | MIC [4] [µg/mL] | MIC [5] [µg/mL] | MIC [6] [µg/mL] | MIC [7] [µg/mL] | MIC [8] [µg/mL] | MIC [9] [µg/mL] | MIC [10] [µg/mL] | MIC [11] [µg/mL] | MIC [12] [µg/mL] | MIC [13] [µg/mL] | MIC [14] [µg/mL] | MIC [15] [µg/mL] | MIC [16] [µg/mL] | MIC [17] [µg/mL] | MIC [18] [µg/mL] | MIC [19] [µg/mL] | MIC [20] [µg/mL] | also measured
C#CCO/N=C(\C(=O)NC1C(=O)N2C(C(=O)[O-])=C(CSc3nc(N)cc(N)[n+]3C)CSC12)c1csc(N)n1 (stereo not shown) [Compound I-46] | 2 (≈ 3.47 µM) | 8 (≈ 13.9 µM) | 0.063 (≈ 0.109 µM) | 0.063 (≈ 0.109 µM) | 0.25 (≈ 0.434 µM) | ≤ 0.008 | 0.063 (≈ 0.109 µM) | 0.063 (≈ 0.109 µM) | ≤ 0.008 | 0.016 (≈ 0.0278 µM) | ≤ 0.008 | 0.063 (≈ 0.109 µM) | 0.13 (≈ 0.226 µM) | ≤ 0.008 | 4 (≈ 6.95 µM) | 0.5 (≈ 0.869 µM) | 2 (≈ 3.47 µM) | 0.25 (≈ 0.434 µM) | 0.13 (≈ 0.226 µM) | 0.016 (≈ 0.0278 µM) | MIC [21]: 0.063 µg/mL (≈ 0.109 µM); MIC [22]: 0.13 µg/mL (≈ 0.226 µM); MIC [23]: 0.13 µg/mL (≈ 0.226 µM); MIC [24]: 0.031 µg/mL (≈ 0.0539 µM); MIC [25]: 16 µg/mL (≈ 27.8 µM); MIC50 [26]: 0.13 µg/mL (≈ 0.226 µM); MIC90 [26]: 0.25 µg/mL (≈ 0.434 µM); MIC50 [27]: 0.13 µg/mL (≈ 0.226 µM); MIC90 [27]: 0.13 µg/mL (≈ 0.226 µM); MIC50 [28]: 0.25 µg/mL (≈ 0.434 µM); MIC90 [28]: 0.25 µg/mL (≈ 0.434 µM); MIC50 [29]: > 32 µg/mL; MIC90 [29]: > 32 µg/mL; MIC50 [30, 31]: 4 µg/mL (≈ 6.95 µM); MIC90 ([30]; 54 clinical isolates, broth microdilution test, read-out: MIC 90%): 8 µg/mL (≈ 13.9 µM)
C#CCO/N=C(\C(=O)NC1C(=O)N2C(C(=O)[O-])=C(CSc3nc(N)cc(N)[n+]3CC)CSC12)c1csc(N)n1 (stereo not shown) [Compound I-47] | 4 (≈ 6.78 µM) | 8 (≈ 13.6 µM) | 0.13 (≈ 0.22 µM) | 0.13 (≈ 0.22 µM) | 0.5 (≈ 0.848 µM) | 0.016 (≈ 0.0271 µM) | 0.13 (≈ 0.22 µM) | 0.13 (≈ 0.22 µM) | ≤ 0.008 | ≤ 0.008 | ≤ 0.008 | 0.13 (≈ 0.22 µM) | 0.13 (≈ 0.22 µM) | ≤ 0.008 | 8 (≈ 13.6 µM) | 1 (≈ 1.7 µM) | 2 (≈ 3.39 µM) | 0.25 (≈ 0.424 µM) | 0.13 (≈ 0.22 µM) | 0.016 (≈ 0.0271 µM) | MIC [21]: 0.13 µg/mL (≈ 0.22 µM); MIC [22]: 0.13 µg/mL (≈ 0.22 µM); MIC [23]: 0.25 µg/mL (≈ 0.424 µM); MIC [24]: 0.031 µg/mL (≈ 0.0526 µM); MIC [25]: 32 µg/mL (≈ 54.3 µM); MIC50 [26]: 0.063 µg/mL (≈ 0.107 µM); MIC90 [26]: 0.25 µg/mL (≈ 0.424 µM); MIC50 [27]: 0.25 µg/mL (≈ 0.424 µM); MIC90 [27]: 0.25 µg/mL (≈ 0.424 µM); MIC50 [28]: 0.25 µg/mL (≈ 0.424 µM); MIC90 [28]: 0.25 µg/mL (≈ 0.424 µM); MIC50 [29]: 64 µg/mL (≈ 109 µM); MIC90 [29]: 64 µg/mL (≈ 109 µM); MIC90 [30]: 16 µg/mL (≈ 27.1 µM); MIC50 [30, 31]: 4 µg/mL (≈ 6.78 µM)
